Twelve compounds from PubChem BioAssay (NCI) can be followed below.

SMILES strings stand for the structures.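 Compound exposure: 48 hours, 5 concentrations, 96-well plates. GI50 marks 50% less growth. Definition used: TGI = concentration required for complete inhibition of growth.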 Some results are limits rather than exact numbers.

Test systems include BT-549 breast; HCT-15 colon; K-562 leukemia; KM12 colon; MCF7 breast; SW-620 colon; CCRF-CEM leukemia; HCC-2998 colon.
Assay in all cases: inhibition of tumour cell growth, NCI panel, 48 h

Turning to `Oc1c(Cl)cc(CN(Cc2cc(Cl)c(O)c(Cl)c2)C2CCCCC2)cc1Cl`, the TGI with BT-549 breast, with HCT-15 colon, in the assay on K-562 leukemia, in the assay on KM12 colon, in the assay with MCF7 breast and in the assay with SW-620 colon was over 100 µM throughout.

`CCOc1ccc2c(c1)C(=O)c1c-2n(CCCN)c(=O)c2cc([N+](=O)[O-])ccc12`: the GI50 with BT-549 breast is 0.473 µM; with CCRF-CEM leukemia it was under 0.01 µM; in the assay with HCC-2998 colon it was 0.183 µM; with HCT-15 colon, 0.209 µM; in the assay on KM12 colon, 0.532 µM; in the assay with MCF7 breast it was under 0.01 µM. Besides, the GI50 with SW-620 colon was 0.0516 µM. Also, the TGI with BT-549 breast worked out at 1.62 µM; in the assay on CCRF-CEM leukemia it was 0.0208 µM; in the assay on HCC-2998 colon, 1.4 µM; with HCT-15 colon, 1.24 µM; in the assay with KM12 colon, 2.1 µM; in the assay on MCF7 breast it was 0.271 µM. The compound also yielded a TGI with SW-620 colon of 1.36 µM.

As for `COc1ccccc1Nc1nc2ccccc2c2occc12`, the GI50 in the assay on BT-549 breast is 15.3 µM; with CCRF-CEM leukemia, 27.9 µM; in the assay on HCT-15 colon it was 10.5 µM; in the assay on K-562 leukemia, 12.9 µM; in the assay with KM12 colon, 16.1 µM; with MCF7 breast, 15.9 µM. The GI50 with SW-620 colon is 22.6 µM. In addition, the TGI in the assay with BT-549 breast is 32.1 µM; in the assay on CCRF-CEM leukemia, over 50 µM; in the assay on HCT-15 colon, 27 µM; with K-562 leukemia, 28 µM; with KM12 colon, over 50 µM; with MCF7 breast, over 50 µM. In addition, the TGI in the assay with SW-620 colon was over 50 µM.

For `O=c1oc2c(cc1-c1ccccc1)C(O)Oc1ccccc1-2` (configuration not stated), the GI50 was 17.4 µM with BT-549 breast; 3.55 µM in the assay with HCC-2998 colon; 5.04 µM in the assay with HCT-15 colon; 4.27 µM in the assay on K-562 leukemia; 3.04 µM in the assay on KM12 colon; 4.29 µM in the assay on MCF7 breast. Moreover, the GI50 with SW-620 colon was 4.37 µM. For the same compound, the TGI with BT-549 breast was over 100 µM; with HCC-2998 colon it was 19.3 µM; in the assay with HCT-15 colon, over 100 µM; in the assay with K-562 leukemia it was over 100 µM; in the assay with KM12 colon it was 23.4 µM; in the assay on MCF7 breast, over 100 µM. The TGI in the assay on SW-620 colon is over 100 µM.

On to `O=C(O)c1cc2cc(O)ccc2[nH]1`, for which the GI50 with BT-549 breast, with CCRF-CEM leukemia, in the assay on HCC-2998 colon, in the assay on HCT-15 colon, in the assay with KM12 colon and in the assay with MCF7 breast was over 100 µM in each case. Besides, the GI50 in the assay with SW-620 colon is over 100 µM. Besides, the TGI with BT-549 breast, with CCRF-CEM leukemia, in the assay on HCC-2998 colon, in the assay on HCT-15 colon, in the assay with KM12 colon and in the assay with MCF7 breast was over 100 µM in each case. This compound had a TGI in the assay on SW-620 colon of over 100 µM.

In the case of `CCCCCCCC(=O)NS(=O)(=O)c1ccccc1`, the TGI in the assay with BT-549 breast, with CCRF-CEM leukemia, with HCC-2998 colon, with HCT-15 colon, in the assay on K-562 leukemia and in the assay on KM12 colon was over 100 µM throughout. Also, in the assay on SW-620 colon, the TGI was over 100 µM.

On to `COc1cc2c(c(OC)c1OC)C(=O)c1c-2n(CCCN=[N+]=[N-])c(=O)c2cc([N+](=O)[O-])ccc12`, for which the GI50 was 27.3 µM with BT-549 breast; over 100 µM in the assay with HCC-2998 colon; over 100 µM in the assay on HCT-15 colon; over 100 µM with K-562 leukemia; over 100 µM with KM12 colon; 27.2 µM in the assay on MCF7 breast. The GI50 in the assay on SW-620 colon is over 100 µM. Moreover, the TGI in the assay on BT-549 breast, in the assay with HCC-2998 colon, with HCT-15 colon, in the assay with K-562 leukemia, with KM12 colon and with MCF7 breast was over 100 µM in each case. Further, the TGI with SW-620 colon was over 100 µM.

On to `CC(=O)Oc1ccccc1C(=O)NCCC[Se]C#N`, for which the GI50 with CCRF-CEM leukemia is 2.89 µM; in the assay with HCC-2998 colon it was 3.54 µM; in the assay on HCT-15 colon, 2.08 µM; in the assay with K-562 leukemia, 3.46 µM; with KM12 colon, 2.84 µM; with MCF7 breast it was 2.32 µM. Moreover, the GI50 with SW-620 colon was 3.47 µM. Besides, the TGI in the assay with CCRF-CEM leukemia worked out at 21.1 µM; in the assay with HCC-2998 colon, 14.9 µM; with HCT-15 colon, 5.06 µM; in the assay with K-562 leukemia, 21.1 µM; in the assay on KM12 colon it was 16.7 µM; with MCF7 breast it was 11.7 µM.

As for `O=C1C(CO)=C[C@@H](O)[C@H]2O[C@@H]12`, the TGI in the assay with BT-549 breast was over 100 µM; with CCRF-CEM leukemia, over 100 µM; with HCT-15 colon, over 100 µM; with K-562 leukemia it was over 100 µM; in the assay on KM12 colon, over 100 µM; with MCF7 breast, 44.9 µM. In the assay on SW-620 colon, this compound registered a TGI of over 100 µM.

For the compound `COC(=O)[C@@H]1[C@H](O)[C@H](C)[C@H](O)[C@H](C)/C=C\C=C(C)C(=O)Nc2c(C)c(OC(C)=O)c3c(c2O)C(=O)C(C)=C2OCOC(=C23)C(C)=C[C@@](C)(O)[C@H](O)[C@@H](C)[C@H]1OC(C)=O`, the TGI is over 100 µM in the assay with BT-549 breast; over 100 µM in the assay on CCRF-CEM leukemia; over 100 µM in the assay with K-562 leukemia; over 100 µM in the assay on KM12 colon; 65.3 µM with MCF7 breast; over 100 µM in the assay on SW-620 colon.

Regarding `COC(=O)c1ccc(NC(N)=NCC(C)(C)COc2ccc(C(F)(F)F)cc2)nc1`, the figures for the GI50 in the assay on HCT-15 colon and with MCF7 breast were 1.56 µM and 1.52 µM, respectively. For the same compound, the figures for the TGI with HCT-15 colon and in the assay on MCF7 breast were 3.08 µM and 3.28 µM, respectively.

With `O=C(Nc1cc(C(F)(F)F)cc(C(F)(F)F)c1)Nc1ccc(OCc2nnc(-c3ccc(Cl)cc3)o2)c(F)c1`, the GI50 in the assay with CCRF-CEM leukemia was 1.88 µM; with HCC-2998 colon it was 3.12 µM; with HCT-15 colon it was 1.99 µM; with K-562 leukemia, 2.37 µM; in the assay with KM12 colon, 1 µM; with MCF7 breast, 1.79 µM. Besides, in the assay on SW-620 colon, the GI50 is 2.66 µM. In addition, the TGI with CCRF-CEM leukemia is 11.3 µM; in the assay on HCC-2998 colon, 12 µM; in the assay with HCT-15 colon it was 14 µM; in the assay with K-562 leukemia, 24.3 µM; with KM12 colon, 5.72 µM; with MCF7 breast, 8.47 µM. This compound also showed a TGI in the assay on SW-620 colon of 12.3 µM.
